# From the Kinase Knowledgebase extract (Sharma et al. 2016)
# pIC50: −log10 of the molar value.
# Assays:
# PIK3CG (human) = PIK3CG (human) (UniProt P48736); assay: Assessment of PIK3CG Kinase Activity
# PIK3CA (human) = PIK3CA (human) (UniProt P42336); assay: Assessment of PIK3CA Kinase Activity
# Sequence of PIK3CA (human) (P42336 whole entry, looked up): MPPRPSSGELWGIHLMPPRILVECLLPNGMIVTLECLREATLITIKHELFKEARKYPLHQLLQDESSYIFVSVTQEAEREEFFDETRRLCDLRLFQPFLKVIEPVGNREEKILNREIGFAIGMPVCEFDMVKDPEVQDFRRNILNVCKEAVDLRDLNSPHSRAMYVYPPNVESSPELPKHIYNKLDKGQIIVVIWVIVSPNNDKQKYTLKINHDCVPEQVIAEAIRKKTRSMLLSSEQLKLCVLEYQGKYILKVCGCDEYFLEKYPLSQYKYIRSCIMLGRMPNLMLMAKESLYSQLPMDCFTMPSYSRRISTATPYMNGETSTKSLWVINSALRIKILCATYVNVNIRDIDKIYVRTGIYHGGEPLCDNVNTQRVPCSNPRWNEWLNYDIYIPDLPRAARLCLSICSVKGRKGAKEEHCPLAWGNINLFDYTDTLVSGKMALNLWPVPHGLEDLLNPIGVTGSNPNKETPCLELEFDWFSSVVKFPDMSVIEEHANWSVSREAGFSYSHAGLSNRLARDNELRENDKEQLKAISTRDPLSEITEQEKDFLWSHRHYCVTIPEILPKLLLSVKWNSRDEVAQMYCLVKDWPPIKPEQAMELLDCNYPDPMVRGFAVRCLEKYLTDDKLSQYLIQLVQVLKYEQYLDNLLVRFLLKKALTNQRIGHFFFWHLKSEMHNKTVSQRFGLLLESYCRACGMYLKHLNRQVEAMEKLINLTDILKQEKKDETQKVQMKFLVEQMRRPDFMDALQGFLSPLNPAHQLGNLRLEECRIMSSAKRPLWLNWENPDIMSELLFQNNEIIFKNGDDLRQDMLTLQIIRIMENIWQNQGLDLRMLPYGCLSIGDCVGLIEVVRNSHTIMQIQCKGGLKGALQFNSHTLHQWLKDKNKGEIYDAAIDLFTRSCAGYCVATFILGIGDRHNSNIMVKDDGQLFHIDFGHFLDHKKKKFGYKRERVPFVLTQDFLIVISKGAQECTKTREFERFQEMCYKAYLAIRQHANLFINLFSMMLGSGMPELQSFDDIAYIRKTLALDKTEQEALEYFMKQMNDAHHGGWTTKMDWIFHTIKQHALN
# Sequence of PIK3CG (human) (P48736 whole entry, looked up): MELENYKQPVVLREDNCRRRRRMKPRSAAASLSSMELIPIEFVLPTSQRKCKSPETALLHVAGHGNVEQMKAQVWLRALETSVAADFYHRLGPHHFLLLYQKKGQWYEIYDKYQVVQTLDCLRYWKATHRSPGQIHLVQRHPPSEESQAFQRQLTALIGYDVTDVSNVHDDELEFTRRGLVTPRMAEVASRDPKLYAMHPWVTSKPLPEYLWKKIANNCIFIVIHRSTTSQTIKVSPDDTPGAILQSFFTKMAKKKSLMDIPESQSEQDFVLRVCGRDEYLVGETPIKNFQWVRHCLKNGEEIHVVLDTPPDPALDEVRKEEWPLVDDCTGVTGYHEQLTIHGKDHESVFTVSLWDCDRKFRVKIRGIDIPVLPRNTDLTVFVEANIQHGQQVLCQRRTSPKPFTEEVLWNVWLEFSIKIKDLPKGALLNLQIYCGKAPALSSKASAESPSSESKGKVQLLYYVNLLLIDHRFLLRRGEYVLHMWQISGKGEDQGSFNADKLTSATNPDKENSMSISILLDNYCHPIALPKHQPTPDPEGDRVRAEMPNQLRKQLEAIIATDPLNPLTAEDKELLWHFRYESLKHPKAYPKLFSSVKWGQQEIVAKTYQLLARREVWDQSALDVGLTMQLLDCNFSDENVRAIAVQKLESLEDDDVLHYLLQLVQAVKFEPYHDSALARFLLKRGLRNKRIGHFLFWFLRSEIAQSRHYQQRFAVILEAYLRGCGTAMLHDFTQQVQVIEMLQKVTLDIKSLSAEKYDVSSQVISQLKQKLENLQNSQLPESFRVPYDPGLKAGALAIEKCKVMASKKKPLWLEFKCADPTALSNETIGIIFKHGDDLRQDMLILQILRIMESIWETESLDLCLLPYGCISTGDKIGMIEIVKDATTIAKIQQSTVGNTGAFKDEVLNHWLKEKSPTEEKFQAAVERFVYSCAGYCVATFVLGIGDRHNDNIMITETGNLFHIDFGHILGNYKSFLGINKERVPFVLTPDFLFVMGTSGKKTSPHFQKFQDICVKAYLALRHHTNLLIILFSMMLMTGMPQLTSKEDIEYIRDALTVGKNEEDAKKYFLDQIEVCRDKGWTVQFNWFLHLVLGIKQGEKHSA
Compound,pIC50 (PIK3CG (human)),pIC50 (PIK3CA (human))
O=C(NCCO)Nc1ccc(-c2nc(N3CC4CCC(C3)O4)c3sccc3n2)cc1,5.00,
O=C(Nc1ccc(-c2nc(N3CC4CCC(C3)O4)c3cnn([C@H]4CC[C@]5(CCCO5)CC4)c3n2)cc1)Nc1ccc(N2CCNCC2)cc1,5.70,
CC(=O)Nc1ccc(NC(=O)Nc2ccc(-c3nc(N4CC5CCC(C4)O5)c4cnn(C)c4n3)cc2)cc1,5.56,5.98
O=C(Nc1ccc(-c2nc(N3CC4CCC(C3)O4)c3sccc3n2)cc1)NC1CC1,5.00,
CN1CCN(c2ccc(NC(=O)Nc3ccc(-c4nc(N5CC6CCC(C5)O6)c5cnn([C@H]6CC[C@]7(CCCO7)CC6)c5n4)cc3)cc2)CC1,5.84,
O=C(Nc1ccc(-c2nc(N3CC4CCC(C3)O4)c3cnn([C@H]4CC[C@]5(CCCO5)CC4)c3n2)cc1)OCCO,5.69,
CCn1ncc2c(N3CC4CCC(C3)O4)nc(-c3ccc(NC(=O)NC(=O)CNCCN(C)C)cc3)nc21,6.31,6.51
O=C(Nc1ccncc1)Nc1ccc(-c2nc(N3CC4CCC(C3)O4)c3cnn([C@H]4CC[C@]5(CCCO5)CC4)c3n2)cc1,5.65,
CN(C)CC(=O)Nc1ccc(NC(=O)Nc2ccc(-c3nc(N4CC5CCC(C4)O5)c4cnn(C)c4n3)cc2)cc1,5.85,6.46
COC1CCC(n2ncc3c(N4CC5CCC(C4)O5)nc(-c4ccc(NC(=O)Nc5ccncc5)cc4)nc32)CC1 (stereo not given),6.08,
CCn1ncc2c(N3CC4CCC(C3)O4)nc(-c3ccc(NC(=O)NC(=O)CCNCCN(C)C)cc3)nc21,5.09,5.74
